Reference: the NIST ThermoML archive (doi:10.1016/j.jct.2016.10.033)

Assay: xn = mol fraction of the nth substance listed
Conditions: 103 kPa, Liquid, Vibrating tube method

CCO[Si](C)(C)OCC [dimethyldiethoxysilane] + CO[Si](C)(OC)c1ccccc1
mass density [kg/m3]
Conditions	298.15 K	303.15 K	308.15 K	313.15 K	318.15 K
x2 = 0	835.43	830.05	824.66	819.23	813.79
x2 = 0.05	844.52	839.2	833.85	828.47	823.07
x2 = 0.1001	853.53	848.24	842.96	837.62	832.3
x2 = 0.1499	862.39	857.16	851.93	846.65	841.38
x2 = 0.2002	871.25	866.06	860.86	855.62	850.38
x2 = 0.2501	879.99	874.82	869.69	864.51	859.35
x2 = 0.3001	888.58	883.47	878.37	873.21	868.08
x2 = 0.3499	897.15	892.09	887.07	881.99	876.96
x2 = 0.4	905.59	900.56	895.53	890.45	885.39
x2 = 0.4499	914.02	909.03	904.09	899.09	894.16
x2 = 0.5	922.3	917.36	912.44	907.47	902.55
x2 = 0.55	930.51	925.59	920.71	915.78	910.89
x2 = 0.5999	938.58	933.7	928.83	923.93	919.05
x2 = 0.65	946.66	941.82	936.99	932.13	927.3
x2 = 0.6999	954.61	949.79	944.98	940.14	935.33
x2 = 0.75	962.69	957.72	952.94	948.14	943.35
x2 = 0.8	970.29	965.52	960.76	955.98	951.2
x2 = 0.8498	978.01	973.29	968.57	963.83	959.11
x2 = 0.9	985.69	980.99	976.3	971.58	966.88
x2 = 0.95	993.25	988.58	983.91	979.23	974.53
